{"source": "patent US20180079906A1", "about": "“AZACYANINE DYES AND USE THEREOF” (Ecole Polytechnique Fédérale de Lausanne (EPFL), priority 2016, published 2018)", "key": {"[1]": {"system": "skin tissue of a nude mouse", "test": "Ex vivo cell death assay by cryogenic tissue damage (imaging necrosis)", "details": "for fluorescence at the site of focal dry-ice treatment: cryogenic tissue damage, 1, 5, 10 uM dye, 10 min at room temperature", "from_the_text": "Ex vivo cell death assay for compounds, VI and XIV were studied using a method of cryogenic tissue damage. […] After gentle washing with PBS, the samples were scanned for fluorescence using an IVIS Spectrum imaging system (FIG. 18-19)."}, "mastocytoma tumor": {"system": "mastocytoma tumor", "test": "Fluorescence image-guided surgery of mastocytoma tumor in dogs", "assay_type": "in vivo, dog", "procedure": "A kuvasz dog (male, 30 kg) diagnosed with mastocvtoma tumor on his right leg was used for image guided surgery study. All canine studies were performed at Veterinair Verwijscentrum Gouda, Netherlands. Canine was injected intravenous catheterization into the cephalic vein with fluorescence probe XXI (180 nmol/kg) 6h prior to surgery. Canine underwent to general anesthesia prior to surgery. Image guided cancer surgery was performed using Solaris Open-air Fluorescence Imaging System (Perkin Elmer), equipped with four fluorescent channels (470 nm, 660 nm, 750 nm and 800 nm) to obtain real-time visualization of tumor imaging in ambient light (FIGS. 13-15).\nA labrador dog (male, 33 kg) diagnosed with mastocytoma tumor on his nose was used for image guided surgery study. All canine studies were performed at Veterinair Verwijscentrum Gouda, Netherlands. Canine was injected intravenous catheterization into the cephalic vein with fluorescence probe XXI (92 nmol/kg) 10 h prior to surgery. Canine underwent to general anesthesia prior to surgery. Image guided cancer surgery was performed using Solaris Open-air Fluorescence Imaging System (Perkin Elmer), equipped with four fluorescent channels (470 nm, 660 nm, 750 nm and 800 nm) to obtain real-time visualization of tumor imaging in ambient light (FIGS. 16-17)."}, "4T1-luc2 tumors": {"system": "4T1-luc2 tumors", "test": "In vivo NIR fluorescence imaging of subcutaneous 4T1 tumors in nude mice", "procedure": "Female nude mice 6-8 weeks of age were injected with […] of 4T1 cells in 100 ul of PBS subcutaneously into the right flank. Once the tumors reached approximately 0.5 cm^3 in size, animals were injected with 20 nmol of the imaging probe XXI intravenously in 100 ul of PBS. Mice were then imaged at different time points using IVIS Spectrum instrument (Perkin Elmer) at recommended settings 745/810 nm excitation/emission (FIGS. 11-12)."}, "[2]": {"details": "in methanol, calibration standard; cited from earlier work"}, "[3]": {"details": "cited from earlier work"}, "[4]": {"details": "30 kg dog, 180 nmol/kg I.V., 6h after injection"}}, "data": [{"smiles": "CC1(C)C2=CC=CN(CCCCCC(=O)O)C2=N/C1=C/C=C1\\C[N+](C)(C)CC(/C=C/C2=Nc3c(ccc[n+]3CCCCCC(=O)O)C2(C)C)=C1Oc1ccc(S(=O)(=O)O)cc1.[Na+]", "note": "[Dye XIV]", "values": [{"measurement": "fluorescence at the site of focal dry-ice treatment", "setting": "[1]", "value": "strong accumulation of fluorescence"}]}, {"smiles": "CC1(C)C2=CC=CN(CCCCCC(=O)NCCCC[C@@H]3NC(=O)[C@@H](Cc4ccccc4)NC(=O)[C@H](CC(=O)O)NC(=O)CNC(=O)[C@H](CCCNC(=N)N)NC3=O)C2=N/C1=C/C=C1\\C[N+](C)(C)CC(/C=C/C2=Nc3c(ccc[n+]3CCCCCC(=O)NCCCC[C@H]3NC(=O)[C@H](Cc4ccccc4)NC(=O)[C@@H](CC(=O)O)NC(=O)CNC(=O)[C@@H](CCCNC(=N)N)NC3=O)C2(C)C)=C1Oc1ccc(S(=O)(=O)O)cc1.[Na+]", "note": "[Dye XXI]", "values": [{"measurement": "background uptake in normal tissue", "setting": "mastocytoma tumor; [4]", "value": "negligible"}, {"measurement": "identification of tumor by fluorescence in vivo", "setting": "mastocytoma tumor; [4]", "value": "clearly identified"}, {"measurement": "time post injection of highest accumulation in the tumor tissue", "setting": "mastocytoma tumor; dogs", "value": "≤ 6", "unit": "h"}, {"measurement": "time post injection of optimal background/noise ratio calculated from the region of interest", "setting": "4T1-luc2 tumors; 4T1 tumour bearing mice", "value": 2, "unit": "h"}, {"measurement": "tumor uptake (kinetics and specificity)", "setting": "4T1-luc2 tumors; subcutaneous tumors in mice", "value": "faster and more specific tumor uptake"}, {"measurement": "time post injection at which optimal background to noise ratio is achieved", "setting": "4T1-luc2 tumors; subcutaneous tumors in mice, intravenous injection", "value": 2, "unit": "h"}]}, {"smiles": "CC1(C)C2=CC=CN(CCCCCC(=O)O)C2=N/C1=C/C=C1\\C[N+](C)(C)CC(/C=C/C2=Nc3c(ccc[n+]3CCCCCC(=O)O)C2(C)C)=C1Cl", "note": "[Dye VI]", "values": [{"measurement": "fluorescence signal from viable cells", "setting": "[1]; cryogenic tissue damage", "value": "no signal"}, {"measurement": "fluorescence at the site of focal dry-ice treatment", "setting": "[1]", "value": "strong fluorescence signal"}]}, {"smiles": "CC1(C)C(/C=C/C=C/C=C/C=C2\\N(CCCCS(=O)(=O)O)c3ccc4ccccc4c3C2(C)C)=[N+](CCCCS(=O)(=O)[O-])c2ccc3ccccc3c21", "note": "[ICG, Indocyanine Green]", "values": [{"measurement": "fluorescence quantum yield (QY)", "setting": "[2]", "value": 7.8, "unit": "%"}, {"measurement": "solubility in saline", "setting": "[3]", "value": "not readily soluble"}]}]}
